Series [1] deals with HCT-116. The series can be described thus: Cytotoxicity against human HCT-116 cells assessed as reduction in cell viability up to 32 ug/ml after 24 hrs by alamar blue dye based assay. The conditions noted are these: hct-116, 24 h. In general terms: Resazurin is reduced to fluorescent resorufin, in cell work by metabolically active cells.
Series [2] is described as follows: Cytotoxicity against human HTB26 cells assessed as reduction in cell viability up to 32 ug/ml after 24 hrs by alamar blue dye based assay. The conditions noted are these: htb26, 24 h.
The subject of series [3] is MCF7. Description: Cytotoxicity against human MCF7 cells assessed as reduction in cell viability up to 32 ug/ml after 24 hrs by alamar blue dye based assay. The conditions noted are these: mcf7, 24 h.
Series [4] deals with Vero. The series can be described thus: Cytotoxicity against African green monkey Vero cells assessed as reduction in cell viability up to 32 ug/ml after 24 hrs by alamar blue dye based assay. The conditions noted are these: chlorocebus sabaeus.
In series [5] the test system is Candida albicans. Description: Antimicrobial activity against Candida albicans ATCC 14035 after 22 hrs by CLSI protocol based microbroth dilution assay. The class given is functional, organism-based.
Series [6] concerns Proteus vulgaris. Description: Antimicrobial activity against Proteus vulgaris ATCC 12454 after 22 hrs by CLSI protocol based microbroth dilution assay. The class given is functional, organism-based. For orientation: In broth dilution the organism is exposed to a series of concentrations in liquid medium.
Series [7] deals with Staphylococcus warneri. The series can be described thus: Antimicrobial activity against Staphylococcus warneri ATCC 17917 after 22 hrs by CLSI protocol based microbroth dilution assay. The class given is functional, organism-based.
Series [8] concerns Enterococcus faecium. The series can be described thus: Antimicrobial activity against vancomycin-resistant Enterococcus faecium EF379 after 22 hrs by CLSI protocol based microbroth dilution assay. It is filed as functional, organism-based.
Series [9] relates to Staphylococcus aureus. The series can be described thus: Antimicrobial activity against methicillin-resistant Staphylococcus aureus ATCC 33591 after 22 hrs by CLSI protocol based microbroth dilution assay. The class given is functional, organism-based.
A short description of series [10]: Cytotoxicity against human HTB26 cells assessed as reduction in cell viability after 24 hrs by alamar blue dye based assay. The following applies: HTB26, 24 h.
Series [11] has as its system MCF7. The series can be described thus: Cytotoxicity against human MCF7 cells assessed as reduction in cell viability after 24 hrs by alamar blue dye based assay. The conditions noted are these: MCF7, 24 h.

Activity calls are given as the source filed them. The rule behind the calls is not given here.

For 2 compounds, Activity and IC50 results are on record in ChEMBL document CHEMBL4665781, “Metabolomic Comparison and Assessment of Co-cultivation and a Heat-Killed Inducer Strategy in Activation of Cryptic Biosynthetic Pathways” (J Nat Prod, 2020).

In the case of `COc1cccc(C(=O)NC(N)=O)c1O`, the Activity result in [1], in series [2], in series [3] and in [4] was “Non-Toxic” each time. Besides, the outcome in series [5], in series [6], in series [7], in [8] and in series [9] was inactive.

Take `CCCCCCCC1=C(C)C(=O)C(=O)c2c1[nH]c1ccccc21`: the IC50 (in general, the midpoint of a concentration-inhibition curve) in series [10] was found to be 3.67 µM; in series [11], 3.07 µM. Moreover, the outcome in series [5], in series [6], in series [7], in [8] and in series [9] was inactive.
